Laboratory results taken from ChEMBL document CHEMBL1201862, “PubChem BioAssay data set” (2004).
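Following 48 hours of exposure in 96-well plates, responses at five concentrations were used to interpolate endpoints linearly. Abbreviation: GI50, concentration required for 50% inhibition of growth.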 Active and inactive are the calls of the source. Rule as the data show it: active = GI50 up to about 1.1 µM and inactive = higher.

Assays:
Assay in all cases: growth of human tumour cells (NCI), 48 h
A498 = tested on: A498
ACHN = tested on: ACHN
BT-549 = tested on: BT-549
CAKI-1 = tested on: CAKI-1
EKVX = tested on: EKVX
HL-60 = tested on: HL-60
HT-29 = tested on: HT-29
KM12 = tested on: KM12
MDA-MB-231 = tested on: MDA-MB-231
NCI-H226 = tested on: NCI-H226
NCI-H460 = tested on: NCI-H460
OVCAR-5 = tested on: OVCAR-5
RXF 393 = tested on: RXF 393
SK-MEL-28 = tested on: SK-MEL-28
SK-MEL-5 = tested on: SK-MEL-5
SNB-19 = tested on: SNB-19
SNB-75 = tested on: SNB-75
SR = tested on: SR
SF-539 = tested on: SF-539

Measured: GI50

CC[C@]1(Cc2ccc(OC)c(OC)c2)C2CC(C(=O)OC)ON2O[C@H](OCc2ccccc2)[C@@H]1OC(C)=O (stereo partly drawn)
inactive: A498 > 100 µM | ACHN > 100 µM | BT-549 > 100 µM | CAKI-1 > 100 µM | EKVX > 100 µM | HL-60 26.1 µM | HT-29 > 100 µM | KM12 > 100 µM | MDA-MB-231 > 100 µM | NCI-H226 > 100 µM | NCI-H460 > 100 µM | OVCAR-5 > 100 µM | RXF 393 > 100 µM | SK-MEL-28 > 100 µM | SK-MEL-5 > 100 µM | SNB-19 > 100 µM | SNB-75 > 100 µM | SR > 100 µM

O=C(Cc1nc2ncccc2[nH]c1=O)c1c[nH]c2ccccc12
inactive: A498 17.7 µM | ACHN 16.5 µM | BT-549 29.4 µM | CAKI-1 17.4 µM | EKVX 21.4 µM | HL-60 32.1 µM | HT-29 23 µM | KM12 17.5 µM | MDA-MB-231 16.7 µM | NCI-H460 17.3 µM | OVCAR-5 24.2 µM | RXF 393 22 µM | SF-539 16.6 µM | SK-MEL-28 15.1 µM | SK-MEL-5 23.1 µM | SNB-19 18.3 µM | SR 30 µM

CCOC(=O)CCN1C(=O)c2ccc(NC(=O)C(=O)O)cc2S1(=O)=O
inactive: A498 > 100 µM | ACHN > 100 µM | BT-549 > 100 µM | CAKI-1 > 100 µM | EKVX > 100 µM | HL-60 > 100 µM | HT-29 > 100 µM | KM12 > 100 µM | MDA-MB-231 > 100 µM | NCI-H226 > 100 µM | NCI-H460 > 100 µM | OVCAR-5 > 100 µM | SF-539 > 100 µM | SK-MEL-28 > 100 µM | SK-MEL-5 > 100 µM | SNB-19 > 100 µM | SNB-75 > 100 µM | SR > 100 µM

Oc1[nH]c(Nc2ccc(Cl)cc2)nc2ncnc1-2
inactive: A498 > 100 µM | ACHN 63.7 µM | BT-549 > 100 µM | CAKI-1 > 100 µM | EKVX > 100 µM | HL-60 > 100 µM | HT-29 47.4 µM | KM12 > 100 µM | MDA-MB-231 88.3 µM | NCI-H226 > 100 µM | NCI-H460 > 100 µM | OVCAR-5 > 100 µM | SF-539 > 100 µM | SK-MEL-28 > 100 µM | SK-MEL-5 > 100 µM | SNB-19 33.1 µM | SNB-75 43.4 µM | SR 44.9 µM

Cc1ccc(/N=N/C(=O)NNc2ccc(C)cc2Br)c(Br)c1
inactive: A498 26.9 µM | ACHN 26.7 µM | BT-549 27.2 µM | CAKI-1 24.9 µM | HL-60 18.7 µM | HT-29 40.9 µM | MDA-MB-231 26.3 µM | NCI-H226 21.3 µM | NCI-H460 17.3 µM | OVCAR-5 19.4 µM | SK-MEL-28 21.4 µM | SK-MEL-5 16.9 µM | SNB-19 32.5 µM | SNB-75 40.8 µM | SR 14.7 µM

CCCc1cc(=O)oc2c(C=O)c(O)cc(O)c12
inactive: A498 19.5 µM | ACHN 26.5 µM | BT-549 25.1 µM | CAKI-1 27 µM | EKVX 21.3 µM | HL-60 18.3 µM | HT-29 22.1 µM | KM12 22.7 µM | MDA-MB-231 17.5 µM | NCI-H460 24.8 µM | OVCAR-5 26.7 µM | RXF 393 24 µM | SF-539 26.7 µM | SK-MEL-28 23.2 µM | SK-MEL-5 17.4 µM | SNB-19 25.8 µM | SNB-75 11.3 µM | SR 27.8 µM

Cc1cc2c(s1)C(N)CC2=O (stereo not drawn)
inactive: A498 > 100 µM | ACHN > 100 µM | BT-549 > 100 µM | CAKI-1 > 100 µM | EKVX > 100 µM | HL-60 > 100 µM | HT-29 > 100 µM | KM12 > 100 µM | MDA-MB-231 > 100 µM | NCI-H460 > 100 µM | OVCAR-5 > 100 µM | RXF 393 > 100 µM | SF-539 > 100 µM | SK-MEL-28 > 100 µM | SK-MEL-5 > 100 µM | SNB-19 > 100 µM | SNB-75 > 100 µM | SR > 100 µM

O=C(O)c1nc2ccc(C(F)(F)F)cc2nc1Nc1ccc(F)cc1
inactive: A498 16.9 µM | ACHN 21.4 µM | BT-549 12.5 µM | CAKI-1 30 µM | EKVX 20.7 µM | HL-60 12.6 µM | HT-29 28.1 µM | KM12 18.6 µM | MDA-MB-231 25.1 µM | NCI-H226 18.1 µM | NCI-H460 16.1 µM | OVCAR-5 28.4 µM | RXF 393 14.4 µM | SK-MEL-28 37.6 µM | SK-MEL-5 18 µM | SNB-19 > 10 µM | SNB-75 23.3 µM | SR 12.1 µM

CC(C)=CCN1c2ccccc2NC(=O)CC1C (stereo not drawn)
inactive: A498 83.8 µM | ACHN 71.1 µM | BT-549 22.7 µM | CAKI-1 > 100 µM | EKVX 51.3 µM | HL-60 61.2 µM | HT-29 > 100 µM | KM12 > 100 µM | MDA-MB-231 > 100 µM | NCI-H226 > 100 µM | NCI-H460 > 100 µM | OVCAR-5 > 100 µM | RXF 393 > 100 µM | SF-539 > 100 µM | SK-MEL-28 > 100 µM | SK-MEL-5 29.3 µM | SNB-19 > 100 µM | SR 56.5 µM

COC(=O)[C@]1(CCC(C)=O)C(=O)C=CN([C@H](C)c2ccccc2)[C@@H]1Cc1ccc(OC)c(OCc2ccccc2)c1I
inactive: A498 22.5 µM | ACHN 25.7 µM | BT-549 24.1 µM | CAKI-1 29.2 µM | EKVX 29.6 µM | HL-60 24 µM | HT-29 14.6 µM | KM12 19.2 µM | MDA-MB-231 15.8 µM | NCI-H226 15.7 µM | NCI-H460 15.9 µM | OVCAR-5 22.7 µM | RXF 393 11.4 µM | SF-539 16.6 µM | SK-MEL-28 35.2 µM | SK-MEL-5 13.9 µM | SNB-19 22.5 µM | SR 15.7 µM

CC(C)c1cccc(C(=O)NCCN(C)C)c1[N+](=O)[O-]
inactive: A498 65.9 µM | ACHN > 100 µM | BT-549 19.5 µM | CAKI-1 > 100 µM | HL-60 > 100 µM | HT-29 > 100 µM | KM12 > 100 µM | MDA-MB-231 > 100 µM | NCI-H226 > 100 µM | NCI-H460 > 100 µM | OVCAR-5 > 100 µM | SF-539 > 100 µM | SK-MEL-28 > 100 µM | SK-MEL-5 > 100 µM | SNB-19 > 100 µM | SNB-75 35 µM | SR > 100 µM

COc1cccc2c1-c1nc(N)c3c(OC)cccc3c1C2=O
inactive: A498 > 100 µM | BT-549 > 100 µM | CAKI-1 > 100 µM | EKVX 54.1 µM | HL-60 19.6 µM | HT-29 28.8 µM | KM12 16.1 µM | MDA-MB-231 19.1 µM | NCI-H226 48.3 µM | OVCAR-5 > 100 µM | SF-539 > 100 µM | SK-MEL-28 > 100 µM | SK-MEL-5 > 100 µM | SNB-75 22.3 µM | SR > 100 µM
